Consider 16 molecules from US5017568A, “Steriod 5-alpha-reductase inhibitors” (SmithKline Beecham Corporation, priority 1990, dated 1991).

“Also recorded” adds a separate entry of the source. Read-outs that look alike come from different tables or passages of the source.

Experiment [1] deals with T1, human prostatic steroid 5-α-reductase (Homo sapiens, UniProt P31213).
T1 construct: Prostatic particles were obtained by differential centrifugation; from tissue; host or cells: hyperplastic human prostate, particulate fraction (140,000 x g pellet)
T1 sequence (P31213 1-254): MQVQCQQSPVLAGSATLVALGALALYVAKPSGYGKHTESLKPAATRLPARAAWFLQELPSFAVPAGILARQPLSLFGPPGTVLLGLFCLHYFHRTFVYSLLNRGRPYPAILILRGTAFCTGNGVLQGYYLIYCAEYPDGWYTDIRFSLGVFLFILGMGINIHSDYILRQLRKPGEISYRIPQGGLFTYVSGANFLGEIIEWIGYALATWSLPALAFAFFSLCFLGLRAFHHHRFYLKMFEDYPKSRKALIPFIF
Kind of experiment: Inhibition of human prostatic steroid 5-α-reductase (conversion of [14C]-testosterone, prostatic particulates). It counts as biochemical. The settings on record: for Ki: pH 5.0, 37° C., competitive versus testosterone assumed, Dixon analysis, read-out: Inhibition Constants of Human Prostatic Steroid 5-α-Reductase, Ki. Here is the method: Such diseases and conditions include acne vulgaris, seborrhea, female hirsutism, prostate diseases such as benign prostatic hypertrophy and prostatic adenocarcinoma and male pattern baldness. The potency of several compounds of the invention was tested for potency in inhibiting human steroid 5-α-reductase using tissue from hyperplastic human prostates. In determining potency in inhibiting the human enzyme, the following procedure was employed:
Frozen human prostates were thawed and minced into small pieces (5 mm^3). The tissue was homogenized in 3 to 5 volumes of 20 mM potassium phosphate, pH 6.5, buffer containing 0.33 M sucrose, 1 mM dithiothreitol, and 50 μM NADPH with a Brinkmann Polytron (Sybron Corporation, Westbury, N.Y.). The solution was subjected to sonication for 3 to 5 minutes with a Sonifier Branson Sonic Power Co.) followed by hand homogenization in a glass-to-glass Dounce homogenizer (Kontes Glass Company, Vineland, N.J.).
Prostatic particles were obtained by differential centrifugation at 600 or 1,000 x g for 20 minutes and 140,000 x g for 60 minutes at 4° C. The pellet obtained from the 140,000 x g centrifugation was washed with 5 to 10 tissue volumes of the buffer described above and recentrifuged at 140,000 x g. The resulting pellet was suspended in 20 mM potassium phosphate buffer, pH 6.5, containing 20% glycerol, 1 mM dithiothreitol, and 50 μM NADPH. The suspended particulate solution was stored at -80° C.
A constant amount of [^14 C]-testosterone (52 to 55 mCi/mmol, New England Nuclear, Boston, MA) in ethanol and varying amounts of the potential inhibitor in ethanol were deposited in test tubes and concentrated to dryness in a SAVANT Speed Vac. To each tube was added buffer, 20 μl of 10 mM NADPH and an aliquot of prostatic particulate solution to a final volume of 1.0 ml of 50 mM sodium citrate, pH 5.0. After incubating the solution at 37° C. for 20 to 30 minutes the reaction was quenched by the addition of 4 ml ethyl acetate and 0.25 μmol each of testosterone, dihydrotestosterone, androstanediol, and androstanedione as carriers. The organic layer was removed to a second test tube and evaporated to dryness in a Speed Vac. The residue was dissolved in 20 to 30 μl chloroform, spotted on an individual lane of a 20 x 20 cm prechannelled silica gel TLC plate (Si 250F PA, Baker Chemical) and developed twice with acetone:chloroform (1:9). The radiochemical content in the bands of the substrate and the products was determined with a BIOSCAN Imaging Scanner (Bioscan, Inc., Washington, D.C.). The percent of recovered radiolabel converted to product was calculated, from which enzyme activity was determined. All incubations were conducted such that no more than 12% of the substrate (testosterone) was consumed.
The experimentally obtained data was computer fitted to a linear function by plotting the reciprocal of the enzyme activity (1/velocity) against the variable inhibitor concentration (Dixon, M. (1953), Biochem. J., 55, 170). Assuming that the steroidal inhibitor is a competitive inhibitor against testosterone, a value for the inhibition constant (Ki) can be calculated from equation 1:
Ki =(B/A)/[…]) Equation 1

In experiment [2] the target is steroid 5-α-reductase. The settings on record: cited from earlier work; for mode of 5-α-reductase inhibition: in words.
Another experiment has as its system ventral prostate. Kind of experiment: Effect of repeated dosing on prostatic growth / ventral prostate weight in rats. It counts as in vivo, rat. The settings on record: for ventral prostate weight, percent of control: rats, two weeks. As for the experimental part:
N,N diisopropyl-androst-3,5 diene 17β-carboxamide-3-carboxylic acid also was tested for its effects on prostatic growth.

Experiment [3] relates to steroid 5-α-reductase. The experiment is described as follows: In vivo inhibition of steroid 5-α-reductase: prostatic DHT (and testosterone) levels in rats. Details: species or system rat. Here is the method: Certain compounds of the invention also were tested for their in vivo potency in inhibiting steroid 5-α-reductase activity. Male Charles River CD rats, 48 days old, weighing approximately 200 gm were administered 10 mg/kg of N,N-diisopropyl androst-3,5-diene-17β-carboxamide-3-carboxylic acid dissolved in propylene glycol and diluted in normal saline. Following compound administration the animals were sacrificed, the ventral prostates were excised, and DHT levels were measured by the following procedure.
Prostate tissue was excised, trimmed, weighed, minced and washed with phosphate buffer. The tissue then was homogenized in phosphate buffer and extracted by addition of ethyl acetate and mixing on an orbital mixer for forty-five minutes. The ethyl acetate was evaporated, the residue was reconstituted in ethanol, and was centrifuge filtered using […] filter paper. The components then were separated using reverse-phase HPLC collecting the DHT fraction. The fraction was reduced to dryness and reconstituted in standard DHT assay buffer available from Amersham. DHT levels then were measured using standard techniques such as radioimmunoassay.
Using procedures similar to those described above the in vivo effects of 17β-N-t-butylcarbox-amide-androst-3,5-diene-3-carboxylic acid also were studied. Rats received a single oral dose of vehicle or 5, 10, 20 or 50 mg/kg of this compound.

For the next experiment, the system named is seminal vesicle. Kind of experiment: Effect of repeated dosing on seminal vesicle weight in rats. It counts as in vivo, rat. The settings on record: rats, 1, 5, 10, 25 or 50 mg/kg twice daily, two weeks.
Another experiment relates to steroid-5-α-reductase. Kind of experiment: In vitro steroid 5-α-reductase inhibition. It counts as biochemical. The settings on record: in words.
Where [4] appears, read: Irreversible, read-out: 5-α-reductase inhibition constant (Table 1).

With `C[C@H](CO)[C@H]1CC[C@H]2[C@@H]3CC[C@H]4C(F)=C(C(=O)O)CC[C@]4(C)[C@H]3CC[C@]12C`, in experiment [1], the Ki was 2 µM.

Turning to `CCOC(=O)C1=CC2=CC[C@H]3[C@@H]4CC[C@H](C(=O)N(C(C)C)C(C)C)[C@@]4(C)CC[C@@H]3[C@@]2(C)CC1`, the Ki in experiment [1] is 4 µM.

On to `CC(C)N(C(=O)[C@H]1CC[C@H]2[C@@H]3CC[C@H]4C(F)=C(C(=O)O)CC[C@]4(C)[C@H]3CC[C@]12C)C(C)C`, for which the Ki in experiment [1] turned out to be 0.026 µM.

`CC(C)N(C(=O)[C@H]1CC[C@H]2[C@@H]3CC=C4C=C(C(=O)O)C=C[C@]4(C)[C@H]3CC[C@]12C)C(C)C`: in experiment [1], the Ki is 0.05 µM.

Regarding `CC(C)N(C(=O)[C@H]1CC[C@H]2[C@@H]3CC(C(F)(F)F)=C4C=C(C(=O)O)CC[C@]4(C)[C@H]3CC[C@]12C)C(C)C`, in experiment [1], the Ki is 0.9 µM.

With `CC(C)(C)NC(=O)[C@H]1CC[C@H]2[C@@H]3CC[C@H]4C=C(C(=O)O)CC[C@]4(C)[C@H]3CC[C@]12C`, the Ki in experiment [1] was 0.11 µM.

Regarding `C[C@]12CC[C@H]3[C@@H](CCC4=CC(=O)CC[C@@]43C)[C@@H]1CC[C@@H]2C(=O)O` [(1)], the Ki at steroid 5-α-reductase [2] (Hsia and Voight 1973, read-out: K1) is 1.1 µM.

As for `CC(=O)[C@H]1CC[C@H]2[C@@H]3CC=C=CC(=O)CCC(=O)[C@H]3CC[C@]12C` [(2)], the Ki on steroid 5-α-reductase [2] (setting [4]) is 1 µM. For the same molecule, the “mode of 5-α-reductase inhibition” value in the experiment on steroid 5-α-reductase [2] was “Irreversible; also recorded: affinity label for 5 -α-reductase”.

As to `CC(CO)[C@H]1CC[C@H]2[C@@H]3CC[C@H]4C(=[N+]=[N-])C(=O)CC[C@]4(C)[C@H]3CC[C@]12C` (some centres unmarked) [(3)], on steroid 5-α-reductase [2] (Irreversible, Blohm, et al., 1980, read-out: 5-α-reductase inhibition constant (Table 1)), the Ki was 0.035 µM. Also, in the experiment on steroid 5-α-reductase [2], the “mode of 5-α-reductase inhibition” value was “Irreversible; also recorded: potent, time-dependent inhibitor”.

Turning to `CCN(CC)C(=O)[C@H]1CC[C@H]2[C@@H]3CC[C@H]4N(C)C(=O)CC[C@]4(C)[C@H]3CC[C@]12C` [(4)], on steroid 5-α-reductase [2] (Liang, et al., 1983, read-out: 5-α-reductase inhibition constant (Table 1)), the Ki was 0.005 µM.

For the molecule `C=C1C[C@@H]2[C@H](CC[C@@]3(C)[C@H]2CC[C@]3(OC(C)=O)C(C)=O)[C@@]2(C)CCC(=O)C=C12` [(5)], the Ki at steroid 5-α-reductase [2] (setting [4]) is 1.25 µM. In the experiment with steroid 5-α-reductase [2], the “mode of 5-α-reductase inhibition” value is recorded as “Irreversible; also recorded: time-dependent inactivator”.

In the case of `CC(C)N(C(=O)[C@H]1CC[C@H]2[C@@H]3CC=C4C=C(C(=O)O)CC[C@]4(C)[C@H]3CC[C@]12C)C(C)C` [N,N-Diisopropyl-androst-3,5-diene-17β-carboxamide-3-carboxylic acid], the prostatic growth entry in the experiment on ventral prostate (immature rats, 0.5 to 50 mg/kg twice daily oral, fourteen days) is listed as “dose dependent decrease in prostatic growth”. In addition, the “decrease of prostate weight versus controls” value in the experiment on ventral prostate (immature rats, maximum dose group (50 mg/kg), twice daily oral, fourteen days) was “forty to fifty”. For the same molecule, in the experiment on steroid 5-α-reductase [3] (male CD rats, 10 mg/kg), the “duration of decreased DHT levels” value is reported as “greater than eight”. Further, in the experiment with steroid 5-α-reductase [3] (male CD rats, 10 mg/kg, four hours after administration), the “decrease of prostatic DHT levels relative to vehicle-treated controls” value is listed as “forty”. In the experiment on steroid 5-α-reductase [3] (male CD rats, 10 mg/kg, twenty four hours after treatment), the “return of prostatic DHT levels to control” value is recorded as “had returned to control levels”.

As to `CC(C)(C)NC(=O)[C@H]1CC[C@H]2[C@@H]3CC=C4C=C(C(=O)O)CC[C@]4(C)[C@H]3CC[C@]12C` [N-t-Butyl Androst-3,5-diene-17β-carboxamide-3-Carboxylic Acid], the “ventral prostate weight, percent of control” value in the experiment on ventral prostate (5 mg/kg twice daily) was “ninety”; in the experiment on ventral prostate (10 and 50 mg/kg twice daily), “sixty five”. The “prostate dihydrotestosterone levels, percent of controls” value in the experiment with steroid 5-α-reductase [3] (rats, 10 mg/kg, all time points from two to eighteen hours) was “approximately sixty”; in the experiment with steroid 5-α-reductase [3] (rats, single oral dose 5, 10, 20 or 50 mg/kg (all doses)), “approximately fifty”. Also, the prostate testosterone levels result is “viable without consistent trends” in the experiment on steroid 5-α-reductase [3] (rats, 10 mg/kg, over twenty four hours) and “remained unaffected” with steroid 5-α-reductase [3] (rats, single oral dose 5, 10, 20 or 50 mg/kg). The “return of dihydrotestosterone levels to control values” in the experiment on steroid 5-α-reductase [3] (rats, 10 mg/kg, twenty-four hours post treatment) is listed as “returned to control values”. Besides, the seminal vesicle weights entry with seminal vesicle is reported as “significantly reduced at all treatment levels”.

On to `CC(C)(C)NC(=O)[C@H]1CC[C@H]2[C@@H]3CC=C4C=C(C(=O)O)CC[C@]4(C)[C@H]3CC[C@]12C` [drawing 35], for which the Ki in experiment [1] came out at 0.03 µM.

`COC(=O)C1=CC2=CC[C@H]3[C@@H]4CC[C@H](C(=O)N(C(C)C)C(C)C)[C@@]4(C)CC[C@@H]3[C@@]2(C)CC1` [methyl ester of the above compound, 3-Carbomethoxy-androst-3,5-diene-17β-N,N -diisopropylcarboxamide]: in the experiment with steroid-5-α-reductase, the “steroid-5-α-reductase inhibition in vitro” value was “does not inhibit steroid-5-α-reductase in vitro”. The “decrease of prostatic DHT levels relative to vehicle-treated controls” value with steroid 5-α-reductase [3] (rats, single 10 mg/kg dose, after six hours) is “forty eight”. Besides, the “steroid 5-α-reductase inhibition in vivo” value in the experiment on steroid 5-α-reductase [3] (rats, single 10 mg/kg dose, in words) is listed as “significant enzyme inhibition”.

The Km is the concentration of substrate that gives half-maximal velocity. On to `C[C@]12CC[C@H]3[C@@H](CCC4=CC(=O)CC[C@@]43C)[C@@H]1CC[C@@H]2O` [testosterone, reference compound], for which, in experiment [1] (determined in a separate experiment, read-out: Km of the substrate (testosterone)), the Km is 4.5 µM.
